Test results taken from patent US8729113B2 (Hoffmann-La Roche Inc., priority 2008, dated 2014).

Molecular target: TAAR1 (Mus musculus (Mouse), UniProt Q923Y8)
Assay: Radioligand binding assay on TAAR1 (membranes of stably transfected HEK293 cells)
Conditions: competition with [3H]-rac-2-(1,2,3,4-tetrahydro-1-naphthyl)-2-imidazoline, 4° C., 30 min
Procedure: For the construction of expression plasmids the coding sequences of human, rat and mouse TAAR 1 were amplified from genomic DNA essentially as described by Lindemann et al.. The Expand High Fidelity PCR System (Roche Diagnostics) was used with 1.5 mM Mg^2+ and purified PCR products were cloned into pCR2.1—TOPO cloning vector (Invitrogen) following the instructions of the manufacturer. PCR products were subcloned into the pIRESneo2 vector (BD Clontech, Palo Alto, Calif.), and expression vectors were sequence verified before introduction in cell lines.
HEK293 cells (ATCC # CRL-1573) were cultured essentially as described Lindemann et al. (2005). For the generation of stably transfected cell lines HEK293 cells were transfected with the pIRESneo2 expression plasmids containing the TAAR coding sequences (described above) with Lipofectamine 2000 (Invitrogen) according to the instructions of the manufacturer, and 24 hrs post transfection the culture medium was supplemented with 1 mg/ml G418 (Sigma, Buchs, Switzerland). After a culture period of about 10 d clones were isolated, expanded and tested for responsiveness to trace amines (all compounds purchased from Sigma) with the cAMP Biotrak Enzyme immunoassay (EIA) System (Amersham) following the non-acetylation EIA procedure provided by the manufacturer. […] Membrane Preparation and Radioligand Binding
Cells at confluence were rinsed with ice-cold phosphate buffered saline without Ca^2+ and Mg^2+ containing 10 mM EDTA and pelleted by centrifugation at 1000 rpm for 5 min at 4° C. The pellet was then washed twice with ice-cold phosphate buffered saline and cell pellet was frozen immediately by immersion in liquid nitrogen and stored until use at −80° C. Cell pellet was then suspended in 20 ml HEPES-NaOH (20 mM), pH 7.4 containing 10 mM EDTA, and homogenized with a Polytron (PT 3000, Kinematica) at 10,000 rpm for 10 s. The homogenate was centrifuged at 48,000×g for 30 min at 4° C. and the pellet resuspended in 20 ml HEPES-NaOH (20 mM), pH 7.4 containing 0.1 mM EDTA (buffer A), and homogenized with a Polytron at 10,000 rpm for 10 s. The homogenate was then centrifuged at 48,000×g for 30 min at 4° C. and the pellet resuspended in 20 ml buffer A, and homogenized with a Polytron at 10,000 rpm for 10 s. Protein concentration was determined by the method of Pierce (Rockford, Ill.). The homogenate was then centrifuged at 48,000×g for 10 min at 4° C., resuspended in HEPES-NaOH (20 mM), pH 7.0 including MgCl2 (10 mM) and […] homogenized with a Polytron at 10,000 rpm for 10 s.
Binding assay was performed at 4° C. in a final volume of 1 ml, and with an incubation time of 30 min. The radioligand [^3H]-rac-2-(1,2,3,4-tetrahydro-1-naphthyl)-2-imidazoline was used at a concentration equal to the calculated Kd value of 60 nM to give a bound at around 0.1% of the total added radioligand concentration, and a specific binding which represented approximately 70-80% of the total binding. Non-specific binding was defined as the amount of [^3H]-rac-2-(1,2,3,4-tetrahydro-1-naphthyl)-2-imidazoline bound in the presence of the appropriate unlabelled ligand (10 μM). Competing ligands were tested in a wide range of concentrations […]. […] Each experiment was performed in duplicate. All incubations were terminated by rapid filtration through UniFilter-96 plates (Packard Instrument Company) and glass filter GF/C, pre-soaked for at least 2 h in polyethylenimine 0.3%, and using a Filtermate 96 Cell Harvester (Packard Instrument Company). The tubes and filters were then washed 3 times with 1 ml aliquots of cold buffer B. Filters were not dried and soaked in Ultima gold (45 μl/well, Packard Instrument Company) and bound radioactivity was counted by a TopCount Microplate Scintillation Counter (Packard Instrument Company).

Chain of TAAR1 (Q923Y8 whole entry): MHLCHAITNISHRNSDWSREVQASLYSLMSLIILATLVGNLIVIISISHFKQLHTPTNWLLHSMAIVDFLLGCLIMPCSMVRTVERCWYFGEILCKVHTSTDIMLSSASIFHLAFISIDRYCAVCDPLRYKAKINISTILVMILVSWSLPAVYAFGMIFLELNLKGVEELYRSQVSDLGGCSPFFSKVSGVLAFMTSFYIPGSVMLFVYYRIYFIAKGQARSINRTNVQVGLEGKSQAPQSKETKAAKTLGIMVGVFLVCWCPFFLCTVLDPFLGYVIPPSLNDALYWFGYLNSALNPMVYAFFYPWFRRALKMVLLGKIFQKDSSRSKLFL

Row | SMILES | Ki
1 | NC1=N[C@@H](CCOc2cccc(Br)c2)CO1 [Example 35, (S)-4-[2-(3-Bromo-phenoxy)-ethyl]-4,5-dihydro-oxazol-2-ylamine] | 0.0001 µM
2 | NC1=N[C@@H](CCOc2ccc(F)cc2F)CO1 [Example 11, (S)-4-[2-(2,4-Difluoro-phenoxy)-ethyl]-4,5-dihydro-oxazol-2-ylamine] | 0.0011 µM
3 | NC1=N[C@@H](CCOc2ccc(F)cc2)CO1 [Example 2, (S)-4-[2-(4-Fluoro-phenoxy)-ethyl]-4,5-dihydro-oxazol-2-ylamine] | 0.0028 µM
4 | CC(CC[C@H]1COC(N)=N1)c1ccc(F)cc1 (stereo partly drawn) [Example 17, (4S)-4-[3-(4-Fluoro-phenyl)-butyl]-4,5-dihydro-oxazol-2-ylamine] | 0.0012 µM
5 | C[C@@H](C[C@H]1COC(N)=N1)Oc1ccc(Cl)c(F)c1 [Example 70, (S)-4-[(S)-2-(4-Chloro-3-fluoro-phenoxy)-propyl]-4,5-dihydro-oxazol-2-ylamine] | 0.0036 µM
6 | CC(CC[C@H]1COC(N)=N1)c1ccccc1 (stereo partly drawn) [Example 13, (4S)-4-(3-Phenyl-butyl)-4,5-dihydro-oxazol-2-ylamine] | 0.0073 µM
7 | C[C@@H](C[C@H]1COC(N)=N1)Oc1ccc(F)cc1 [Example 64] | 0.0076 µM
8 | NC1=N[C@@H](CCOc2ccc(Cl)cc2F)CO1 [Example 58, (S)-4-[2-(4-Chloro-2-fluoro-phenoxy)-ethyl]-4,5-dihydro-oxazol-2-ylamine] | 0.0041 µM
9 | NC1=N[C@@H](CCOc2ccc(Cl)cc2)CO1 [Example 3, (S)-4-[2-(4-Chloro-phenoxy)-ethyl]-4,5-dihydro-oxazol-2-ylamine] | 0.0005 µM
10 | CC(C)c1cccc(OCC[C@H]2COC(N)=N2)c1 [Example 21, (S)-4-[2-(3-Isopropyl-phenoxy)-ethyl]-4,5-dihydro-oxazol-2-ylamine] | 0.0017 µM
11 | NC1=N[C@@H](CCSc2ccc(F)cc2)CO1 [Example 150, (S)-4-[2-(4-Fluoro-phenylsulfanyl)-ethyl]-4,5-dihydro-oxazol-2-ylamine] | 0.0007 µM
12 | CCC(CC[C@H]1COC(N)=N1)c1ccc(F)cc1 (stereo partly drawn) [Example 18, (4S)-4-[3-(4-Fluoro-phenyl)-pentyl]-4,5-dihydro-oxazol-2-ylamine] | 0.0026 µM
13 | COc1ccc(OCC[C@H]2COC(N)=N2)cc1 [Example 59, (S)-4-[2-(4-Methoxy-phenoxy)-ethyl]-4,5-dihydro-oxazol-2-ylamine] | 0.0076 µM
14 | NC1=N[C@@H](CCOc2ccc(Cl)c(F)c2)CO1 [Example 54, (S)-4-[2-(4-Chloro-3-fluoro-phenoxy)-ethyl]-4,5-dihydro-oxazol-2-ylamine] | 0.0014 µM
15 | NC1=N[C@@H](CCOc2cccc(Cl)c2)CO1 [Example 5, (S)-4-[2-(3-Chloro-phenoxy)-ethyl]-4,5-dihydro-oxazol-2-ylamine] | 0.0003 µM
16 | CCC(CC[C@H]1COC(N)=N1)c1cccc(C(F)(F)F)c1 (stereo partly drawn) [Example 28, (4S)-4-[3-(3-Trifluoromethyl-phenyl)-pentyl]-4,5-dihydro-oxazol-2-ylamine] | 0.0013 µM
17 | C[C@@H](C[C@H]1COC(N)=N1)Oc1ccc(Cl)cc1 [Example 45, (S)-4-[(S)-2-(4-Chloro-phenoxy)-propyl]-4,5-dihydro-oxazol-2-ylamine] | 0.0028 µM
18 | NC1=N[C@@H](CCC2(c3ccc(F)cc3)CC2)CO1 [Example 60, (S)-4-{2-[1-(4-Fluoro-phenyl)-cyclopropyl]-ethyl}-4,5-dihydro-oxazol-2-ylamine] | 0.0025 µM
19 | NC1=N[C@@H](CC2CC2c2ccccc2)CO1 (stereo partly drawn) [Example 23, (4S)-4-(2-Phenyl-cyclopropylmethyl)-4,5-dihydro-oxazol-2-ylamine] | 0.0031 µM

Continued, values first:

Row | Ki | SMILES
20 | 0.0022 µM | NC1=N[C@@H](CCC(F)(F)c2ccc(F)cc2)CO1 [Example 162, (S)-4-[3,3-Difluoro-3-(4-fluoro-phenyl)-propyl]-4,5-dihydro-oxazol-2-ylamine]
21 | 0.0011 µM | CC[C@@H](C[C@H]1COC(N)=N1)Oc1ccc2ccccc2c1 [Example 153, (S)-4-[(S)-2-(Naphthalen-2-yloxy)-butyl]-4,5-dihydro-oxazol-2-ylamine]
22 | 0.0007 µM | CC[C@@H](C[C@H]1COC(N)=N1)Oc1ccc(Cl)c(Cl)c1 [Example 122, (S)-4-[(S)-2-(3,4-Dichloro-phenoxy)-butyl]-4,5-dihydro-oxazol-2-ylamine]
23 | 0.0076 µM | C[C@H](C[C@H]1COC(N)=N1)Oc1cccc(Cl)c1 [Example 84, (S)-4-[(R)-2-(3-Chloro-phenoxy)-propyl]-4,5-dihydro-oxazol-2-ylamine]
24 | 0.0086 µM | C[C@@H](C[C@H]1COC(N)=N1)Oc1ccc(Oc2ccccc2)cc1 [Example 79, (S)-4-[(S)-2-(4-Phenoxy-phenoxy)-propyl]-4,5-dihydro-oxazol-2-ylamine]
25 | 0.0005 µM | NC1=N[C@@H](CCC2(c3ccc(Br)cc3)CC2)CO1 [Example 144, (S)-4-{2-[1-(4-Bromo-phenyl)-cyclopropyl]-ethyl}-4,5-dihydro-oxazol-2-ylamine]
26 | 0.0048 µM | NC1=N[C@@H](CCOc2ccc(C(F)(F)F)cc2)CO1 [Example 88, (S)-4-[2-(4-Trifluoromethyl-phenoxy)-ethyl]-4,5-dihydro-oxazol-2-ylamine]
27 | 0.0017 µM | CC[C@@H](C[C@H]1COC(N)=N1)Oc1ccc(F)c(F)c1 [Example 119, (S)-4-[(S)-2-(3,4-Difluoro-phenoxy)-butyl]-4,5-dihydro-oxazol-2-ylamine]
28 | 0.0073 µM | CC[C@H](OC[C@H]1COC(N)=N1)c1ccccc1 [Example 156, (S)-4-((S)-1-Phenyl-propoxymethyl)-4,5-dihydro-oxazol-2-ylamine]
29 | 0.0013 µM | NC1=N[C@@H](CCC2(c3cc(F)cc(F)c3)CC2)CO1 [Example 142, (S)-4-{2-[1-(3,5-Difluoro-phenyl)-cyclopropyl]-ethyl}-4,5-dihydro-oxazol-2-ylamine]
30 | 0.0024 µM | C[C@@H](C[C@H]1COC(N)=N1)Oc1ccc(F)c(Cl)c1 [Example 72, (S)-4-[(S)-2-(3-Chloro-4-fluoro-phenoxy)-propyl]-4,5-dihydro-oxazol-2-ylamine]
31 | 0.0011 µM | C[C@H](CC[C@H]1COC(N)=N1)c1ccc(F)cc1 [Example 116, (S)-4-[(R)-3-(4-Fluoro-phenyl)-butyl]-4,5-dihydro-oxazol-2-ylamine]
32 | 0.0024 µM | C[C@@H](C[C@H]1COC(N)=N1)Oc1ccc(Br)cc1 [Example 71, (S)-4-[(S)-2-(4-Bromo-phenoxy)-propyl]-4,5-dihydro-oxazol-2-ylamine]
33 | 0.0009 µM | CC[C@@H](C[C@H]1COC(N)=N1)Oc1cccc(OCc2ccccc2)c1 [Example 140, (S)-4-[(S)-2-(3-Benzyloxy-phenoxy)-butyl]-4,5-dihydro-oxazol-2-ylamine]
34 | 0.0032 µM | C[C@H](OC[C@H]1COC(N)=N1)c1ccc(F)cc1 [Example 155, (S)-4-[(S)-1-(4-Fluoro-phenyl)-ethoxymethyl]-4,5-dihydro-oxazol-2-ylamine]
35 | 0.0037 µM | CC[C@@H](C[C@H]1COC(N)=N1)Oc1cccc(O)c1 [Example 141, 3-[(S)-1-((8)-2-Amino-4,5-dihydro-oxazol-4-ylmethyl)-propoxy]-phenol]
36 | 0.008 µM | CC(CCc1ccccc1)[C@H]1COC(N)=N1 (stereo partly drawn) [Example 90, (4S)-4-(1-Methyl-3-phenyl-propyl)-4,5-dihydro-oxazol-2-ylamine]
37 | 0.0014 µM | CC[C@@H](C[C@H]1COC(N)=N1)Oc1ccc(F)c(Cl)c1 [Example 120, (S)-4-[(S)-2-(3-Chloro-4-fluoro-phenoxy)-butyl]-4,5-dihydro-oxazol-2-ylamine]
